Measurements from patent US9193687B2 (priority 2007, dated 2015).
Several values for one entry are separate records, joined by “and”; a condition that tells them apart may be missing. Equal values may be shown once.

Legend:
CCRF-CEM/Taxol = experiment: In vitro cytotoxicity, XTT assay, taxol-resistant subline; details: Homo sapiens, CCRF-CEM, 72 h, read-out: Cytotoxicity IC50, CCRF-CEM/Taxol
[1] = tested on: Human colon carcinoma HCT-116 cells; experiment: cells; details: HCT-116, 72 h, read-out: Cytotoxicity IC50, HCT-116
[2] = tested on: human glioma U87 GM s.c. xenograft; experiment: Therapeutic effect against U87 glioma s.c. xenograft in nude mice; format: in vivo
Method: (§1) Athymic nude mice bearing the nu/nu gene were obtained from NCI, Frederick, Md. and used for all human tumor xenografts. Male nude mice 6 weeks or older weighing 20-24 g or more were used. Compounds were administered via the tail vein for i.v. injection or infusion as described previously.^64 A typical formulation for chemotherapeutic studies for each drug was dissolved in DSMO to make a 25 mg/ml fresh solution, 0.4 ml of this solution was mixed with 0.3 ml of Tween 80, plus 1.3 ml to make 2 ml of 5 mg/ml solution. Bolus injection volume was 0.1-0.2 ml per mouse. Tumor volume was assessed by measuring length×width×height (or width) by using a caliper. For tumor-bearing nude mice during the course of the experiment, the body weight refers to total weight minus the weight of the tumor. All animal studies were conducted in accordance with the guidelines for the National Institute of Health Guide for the Care and Use of Animals and the protocol approved by the Institutional Animal Care and Use Committee.
Athymic nude mice bearing the nu/nu gene were used for human breast tumor MX-1 xenograft (FIGS. 3 and 4) and human brain glioma U87 GM xenograft (FIG. 5). Nude mice were obtained from National Cancer Institute, Frederick, Md. Male mice 6 weeks old or older weighing 22 g or more were used for experiments with subcutaneous tumor inoculation as described previously.^67 Drug was administrated via the tail vein by iv injection. Tumor volumes were assessed by measuring length×width×height (or width) by using caliper. Vehicle used was 20 μL DMSO in 180 μL saline. All animal studies were conducted in accordance with the guidelines of the U.S. National Institutes of Health Guide for the Care and Use of Animals and the protocol approved by the Institutional Animal Care and Use Committee. […]

[3] = tested on: human mammary carcinoma MX-1 xenograft; experiment: Antitumor therapeutic effect against MX-1 xenograft in nude mice; format: in vivo; details: i.v. injection
Method: as §1
The therapeutic effects of a drug against human tumor xenografts in nude mice, under the optimal therapeutic conditions but without any lethality due to drug toxicity, the following degrees of therapeutic effects are defined and calculated by the following formula: […]
where • T0 is the initial tumor size (in mm^3) at beginning of drug treatment; • Tc is tumor size of untreated control group on a given date; and • Tx is tumor size of the drug treated group on a given date.
[formula] • Tumor disappearance (complete remission or CR) is defined by the effect where • [Tx=0] for a period of time (in days) for a proportion of animals (NCR/N), where • N is the total number of animals in the group, and NCR is the number of mice in the group that achieved CR. • Tumor relapse is quantitatively calculated by • [The Day tumor relapsed (Drelp)—The Day CR achieved (DCR)] (Eq. 3) for a proportion of animals (Nrelp/N) where N is the total number of animals in the group, and Nrelp is the number of the mice in the group that relapsed. • The log cell kill (LCK) of the tumor tissue after a given chemotherapy that reached CR is estimated by: LCK=log [2^(Tumor remission in days/Tumor doubling time in days)] (Eq. 4)
Athymic nude mice bearing the nu/nu gene were used for human breast tumor MX-1 xenograft (FIGS. 3 and 4) and human brain glioma U87 GM xenograft (FIG. 5). Nude mice were obtained from National Cancer Institute, Frederick, Md. Male mice 6 weeks old or older weighing 22 g or more were used for experiments with subcutaneous tumor inoculation as described previously.^67 Drug was administrated via the tail vein by iv injection. Tumor volumes were assessed by measuring length×width×height (or width) by using caliper. Vehicle used was 20 μL DMSO in 180 μL saline. All animal studies were conducted in accordance with the guidelines of the U.S. National Institutes of Health Guide for the Care and Use of Animals and the protocol approved by the Institutional Animal Care and Use Committee.

[4] = tested on: CCRF-CEM human lymphoblastic leukemia cells; experiment: cells; details: 72 h, read-out: Cytotoxicity IC50, CCRF-CEM
[5] = tested on: biosynthesis of DNA, RNA and protein in MX-1 cells; experiment: Inhibition of biosynthesis of DNA, RNA and protein (tritiated tracer incorporation); format: cell-based, human
Method: [^3H]Thymidine (1 uCi), [^3H]adenosine (1 μCi) and [^3H]leucine (2 μCi) were used as the tracers for incorporation into DNA, RNA and protein, respectively. […] Incubation was terminated at each time points as indicated.

[6] = Half-life in intravenous injection vehicle; details: intravenous injection vehicle (DMSO/Tween 80/saline)
[7] = dose and schedule per compound as in Table 3

SMILES: Cc1ccc(Nc2c3ccccc3nc3c(C)cccc23)cc1NC(=O)Nc1ccc(N(CCCl)CCCl)cc1 [BO-1051]
- half-life (Half-life in rat plasma): 2.25 days
- IC50 (CCRF-CEM/Taxol): 90 nM
- IC50 [1]: 440 nM
- Tumor size as % of original tumor size ([2]; 100 mg/kg, Q2D×5, n=3, one cycle, 10 and 12 days after last dose): 18%
- Tumor-growth suppression ([2]; BO-1049 150 mg/kg, BO-1051 100 mg/kg, BO-1055 30 mg/kg, Q2D×5, i.v.-injection): complete tumor-growth suppression
- Therapeutic effect compared with cyclophosphamide (80 mg/kg, Q2D×5) ([2]; parallel study): superior therapeutic effects than cyclophosphamide
- Therapeutic effect: complete tumor remission (CR), mice with CR/total and day ([3]; treatment from Day 8, dose and schedule per compound as in Table 3 (30-150 mg/kg)): achieved complete tumor remission and 3/3 CR on D16, 16, 18
- Maximal body-weight loss (%) [3, 7]: 11%
- Therapeutic effect: tumor relapse [3, 7]: No relapse on D70
- IC50 [4]: 80 nM
- Delay in reaching maximal effect on DNA and RNA biosynthesis ([5]; 10 μM): about 1 hr
- inhibition at 10 µM ([5]; Homo sapiens, MX1, read-out: Protein synthesis inhibition): < 20%
- half-life [6]: ~45 days
